# Source: patent US9173395B2, “Use of substituted isoquinolinones, isoquinolindiones, isoquinolintriones and dihydroisoquinolinones or in each case salts thereof as active agents against abiotic stress in plants” (BAYER INTELLECTUAL PROPERTY GMBH, priority 2011, dated 2015)
# Key:
# [1] = tested on: BRSNS; assay: Drought stress test on crop plants, visual damage rating, efficacy EF; assay type: in vivo, Brassica napus; details: dosage 25 g/ha, mean of three results
# Method: (§1) Seeds of monocotyledonous and dicotyledonous crop plants were laid out in sandy loam in wood-fiber pots, covered with soil and cultivated in a greenhouse under good growth conditions. The test plants were treated at the early leaf stage (BBCH10-BBCH13). To ensure uniform water supply before commencement of stress, the potted plants were supplied with the maximum amount of water immediately beforehand by dam irrigation and, after application, transferred into plastic inserts in order to prevent subsequent, excessively rapid drying. The compounds according to the invention, formulated in the form of wettable powders (WP), wettable granules (WG), suspension concentrates (SC) or emulsion concentrates (EC), were sprayed onto the green parts of the plants as an aqueous suspension at an equivalent water application rate of 600 I/ha with addition of 0.2% wetting agent (agrotin). Substance application is followed immediately by stress treatment of the plants (cold or drought stress). […]
# (§2) After the recovery phase had ended, the intensities of damage were rated visually in comparison to untreated, unstressed controls of the same age (in the case of drought stress) or the same growth stage (in the case of cold stress). The intensity of damage was first recorded as a percentage (100%=plants have died, 0%=like control plants). […]
# [2] = tested on: TRZAS; assay: as above; assay type: in vivo, Triticum aestivum; details: dosage 25 g/ha, mean of three results
# Method: as §1, §2
smiles,measurement,setting,value
"O=c1[nH]ccc2ccc(-c3ccc(Cl)cc3F)cc12 [I.1-252, 7-(4-chloro-2-fluorophenyl)isoquinolin-1(2H)-one]",EF (BRSNS),[1],>5%
same,EF (TRZAS),[2],>5%
